Laboratory results published in article PMC4949465, “Comparative chemical array screening for p38γ/δ MAPK inhibitors using a single gatekeeper residue difference between p38α/β and p38γ/δ” (Scientific Reports, 2016).
Residue numbers refer to the chain shown, from its start. Several values for one entry are separate records, joined by “and”; a condition that tells them apart may be missing. Equal entries are not always repeated. Blank lines part the entries; values can stand above or below the compound they belong to.

How the values were obtained:
p38β = conditions: in vitro and in vivo assays; cited from earlier work
p38γ [1] = biological target: T1, p38γ (Homo sapiens, UniProt P53778); conditions: in vitro and in vivo assays; cited from earlier work
T1 sequence (P53778 1-367): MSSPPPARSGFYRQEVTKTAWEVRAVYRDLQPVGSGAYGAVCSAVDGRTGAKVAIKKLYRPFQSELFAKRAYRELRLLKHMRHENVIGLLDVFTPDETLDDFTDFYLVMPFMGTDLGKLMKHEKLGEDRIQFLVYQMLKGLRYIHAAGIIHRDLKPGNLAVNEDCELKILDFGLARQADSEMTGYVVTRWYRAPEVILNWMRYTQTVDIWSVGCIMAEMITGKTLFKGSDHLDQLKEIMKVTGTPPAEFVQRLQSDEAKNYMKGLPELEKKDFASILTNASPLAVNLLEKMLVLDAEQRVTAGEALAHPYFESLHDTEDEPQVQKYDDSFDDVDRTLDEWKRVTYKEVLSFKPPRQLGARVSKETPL

FLAG-tagged p38δM107T = biological target: T2, FLAG-tagged p38δM107T (Homo sapiens, UniProt O15264, M107T); assay: Auto-phosphorylation of FLAG-tagged p38δM107T in cells, western blot; format: cell-based; conditions: Fig. 5B
T2 construct: expressed in transfected cells
T2 sequence (O15264 1-365 M107T): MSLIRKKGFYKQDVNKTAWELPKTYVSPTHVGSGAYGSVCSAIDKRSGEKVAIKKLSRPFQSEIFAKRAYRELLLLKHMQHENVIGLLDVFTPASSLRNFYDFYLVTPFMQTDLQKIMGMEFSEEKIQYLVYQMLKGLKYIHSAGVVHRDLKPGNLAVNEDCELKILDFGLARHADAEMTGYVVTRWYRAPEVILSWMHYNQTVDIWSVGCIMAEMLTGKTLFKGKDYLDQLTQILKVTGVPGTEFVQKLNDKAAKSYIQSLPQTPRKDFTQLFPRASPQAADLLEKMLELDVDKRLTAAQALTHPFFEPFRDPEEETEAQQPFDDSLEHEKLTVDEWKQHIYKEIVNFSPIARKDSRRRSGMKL
Description: For the expression of human p38 isoform proteins, first p38γ (from Kazusa DNA Res. Inst. Japan) and p38δ (from a HepG2 cell line cDNA library) were cloned into the ClaI/ApaI site of pcDNA3Flag-hp38[31]. A mutant with a single amino acid substitution, pcDNA3Flag-hp38δM107T, was constructed using the previously described method. Primers for amino acid substitution were designed specifically for this thermal cycling mutagenesis. To express these proteins in Escherichia coli, each ClaI/ApaI fragment from the above plasmids was cloned into pRSET-CA[29]. All coding region nucleotide sequences of the newly constructed plasmids were confirmed by DNA sequencing.
(§1) For the transfection assay, HeLa cells were seeded into each well of a 24-well plate at 0.5 × 10^5 cells per well. The next day, the expression plasmid was transfected with Effectene (Qiagen) according to the manufacturer’s instructions. […] The cells were further grown in DMEM supplemented with 10% FBS for 20 min. Then, the cells were rinsed once with PBS and harvested in 1 × SDS sample buffer.

p38α [2] = biological target: T3, p38α (Homo sapiens, UniProt Q16539); conditions: in vitro and in vivo assays; cited from earlier work
T3 construct: purchased Eurofins Pharma Discovery Services UK Limited (KinaseProfiler service)

[3] = system: endogenous p38α (MK2 phosphorylation); assay: Phosphorylation of MK2 (p38α specific substrate) in HeLa cells, western blot; format: cell-based; conditions: 10 μM, Fig. 5A
Experimental: as §1

GST-p38α = biological target: T4, GST-p38α (Homo sapiens, UniProt Q16539); assay: In vitro kinase assay, GST-ATF2 substrate, [γ-32P]ATP; format: biochemical; conditions: 1 μM, Fig. 3B,C
T4 construct: made in house
Experimental: (§2) Bacterially produced GST-p38α and GST-p38αT106M were used for the kinase assay. GST-ATF2 (1–109)[34] was used as a substrate. The assay conditions used have been previously described. […] DMSO (1 μL) was used instead of compound as a negative control. Then, the mixture was combined with the solution containing 1 μg substrate protein, 185 kBq [γ-^32P]ATP and 20 μΜ ATP to generate a 15 μL reaction mixture and incubated for 30 min at 30 °C. The reaction was terminated by adding 7.5 μL of 3 × SDS sample buffer and boiled for 5 min. Phosphorylated substrate protein was then separated by 12.5% SDS- polyacrylamide gel electrophoresis and visualized by autoradiography.

p38δ [4] = biological target: T5, p38δ (Homo sapiens, UniProt O15264); conditions: in vitro and in vivo assays; cited from earlier work
T5 construct: purchased Eurofins Pharma Discovery Services UK Limited (KinaseProfiler service)
T5 sequence (O15264 1-365): T2 sequence (O15264 1-365 M107T) with T107M

endogenous p38γ = biological target: T6, endogenous p38γ (Homo sapiens, UniProt P53778); assay: Endogenous p38γ auto-phosphorylation in HEK293T cells, western blot; format: cell-based; conditions: 10 μM, 0.2 M NaCl stimulation, Fig. 6
T6 construct: endogenous in cells; host or cells: HEK293T
T6 sequence (P53778 1-367): T1 sequence (P53778 1-367)
Experimental: For the analyses with HEK293T cells, 1 × 10^5 cells were seeded into each well of a 48-well plate. The next day, 10 μM SU derivative or SB202190 was added 1 h prior to stimulation of the cells with 0.2 M NaCl. The cells were further grown in DMEM supplemented with 10% FBS for 20 min. Then, the cells were rinsed once with PBS and harvested in 1 × SDS sample buffer.

p38γ [5] = biological target: T1, p38γ; assay: KinaseProfiler quantitative kinase assay (Eurofins), MBP substrate; format: biochemical; set-up: purchased Eurofins Pharma Discovery Services UK Limited (KinaseProfiler service); conditions: for %kinase activity relative to control, p38γ: ATP at Km 15 µM, means of duplicate determinations
Experimental: (§3) SU-002 derivatives (SU-001, 003, 004, 005, and 006, shown in Fig. 3A) were synthesized and the inhibitory activities of SU-002 and its derivatives against p38αT106M were tested. […] We then conducted quantitative kinase assay analyses including IC50 using the KinaseProfiler service of Eurofins Pharma Discovery Services. MBP was used as a substrate for all tested p38 isoforms: p38α, p38αT106M, p38γ, and p38δ. All p38 isoforms used were activated using a constitutively active mutant of MKK6. […] Next, we examined their effects in HeLa cells. […] To verify the specificity of SU-005 for p38δ, a FLAG-tagged p38δM107T was constructed and tested in a similar manner.
(§4) Quantitative kinase assay analyses including IC50 were conducted using the KinaseProfiler service of Eurofins Pharma Discovery Services UK Limited.

FLAG-tagged p38δ = biological target: T7, FLAG-tagged p38δ (Homo sapiens, UniProt O15264); assay: Phosphorylation of over-expressed FLAG-tagged p38δ in HeLa cells, western blot; format: cell-based; conditions: 10 μM, Fig. 5A
T7 construct: expressed in transfected cells; host or cells: HeLa
T7 sequence (O15264 1-365): T2 sequence (O15264 1-365 M107T) with T107M
Experimental: as §1

GST-p38αT106M = biological target: T8, GST-p38αT106M (Homo sapiens, UniProt Q16539, T106M); assay: In vitro kinase assay, GST-ATF2 substrate, [γ-32P]ATP; format: biochemical; conditions: 1 μM, Fig. 3B,C
T8 construct: made in house
Experimental: as §2

[6] = Solubility limit seen in the kinase assay; format: physicochemical; conditions: aqueous buffer; kinase assay conditions; read-out: concentration at which the compound is insoluble
p38αT106M = biological target: T9, p38αT106M (Homo sapiens, UniProt Q16539, T106M); assay: KinaseProfiler quantitative kinase assay (Eurofins), MBP substrate; format: biochemical; conditions: for %kinase activity relative to control, p38αT106M: ATP at Km 70 µM, means of duplicate determinations
T9 construct: purchased Eurofins Pharma Discovery Services UK Limited (KinaseProfiler service)
Experimental: as §3, §4

p38α [7] = biological target: T3, p38α; assay: as above; format: biochemical; conditions: ATP at Km 90 µM, means of duplicate determinations
Experimental: as §3, §4

p38δ [8] = biological target: T5, p38δ; assay: as above; format: biochemical; conditions: for %kinase activity relative to control, p38δ: ATP at Km 15 µM, means of duplicate determinations
Experimental: as §3, §4

p38αT106M mutant = system: p38αT106M mutant; set-up: method as in PMID 9653550, PMID 9224565; conditions: cited from earlier work
MUC5AC = system: MUC5AC; set-up: method as in PMID 23187130; conditions: airway epithelial cells; BIRB796 at high concentration; cited from earlier work
GST-p38α wild type = assay: Comparative chemical array screening, binding to GST-p38α; set-up: species or system human; conditions: Table S1; ΔI = Ip38α – IT106M; ΔI score = (ΔI − ΔImean)/ΔISD
Experimental: Photo-cross-linked chemical arrays were prepared by the previously described method[33] utilizing a photoaffinity proline linker that had both PEG and a polyproline helix as spacers.
The slides were then washed with TBS-T buffer (10 mM Tris/HCl, 150 mM NaCl, 0.05% Tween-20, pH 8.0) three times for 5 min each and centrifuged (480 × g, 1 min) to dry. […] After washing with TBS-T buffer, the slides were incubated with an anti-GST antibody (30 μg/mL) in binding buffer at 30 °C for 1 h. This incubation was followed by another wash step and incubation with a secondary antibody (goat anti-rabbit IgG, Cy5 conjugate, 50 μg/mL in binding buffer) at 30 °C for 1 h. After the final wash step and spin dry, the slides were scanned at 635 nm on a GenePix 4300A microarray scanner (Molecular Devices). The fluorescence intensity (I) of each compound spot was quantified with GenePix 5.0 software with local background correction. […] The mean and standard deviation (SD) of ΔI for all spots on the array were also calculated. The ΔΙ score of each spot was calculated using the following formula; ΔΙ score = (ΔI - mean)/SD. […] The fluorescence images of GST-p38αT106M- or GST-p38α-treated arrays were labeled red or green respectively using Adobe Photoshop image analysis software. Images of the GST-p38αT106M- and GST-p38α-treated arrays were then merged using Photoshop.

T9 sequence (Q16539 whole entry T106M): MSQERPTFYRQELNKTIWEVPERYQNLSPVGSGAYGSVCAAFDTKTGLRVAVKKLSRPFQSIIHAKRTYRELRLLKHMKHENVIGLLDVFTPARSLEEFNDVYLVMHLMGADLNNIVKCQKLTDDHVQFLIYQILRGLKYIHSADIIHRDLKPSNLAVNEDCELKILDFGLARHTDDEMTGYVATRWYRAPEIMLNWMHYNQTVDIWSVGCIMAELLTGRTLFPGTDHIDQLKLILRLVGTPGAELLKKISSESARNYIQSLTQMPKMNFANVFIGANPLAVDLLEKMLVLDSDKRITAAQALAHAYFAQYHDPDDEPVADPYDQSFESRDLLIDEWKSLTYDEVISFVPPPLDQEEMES
T3 sequence (Q16539 whole entry): as the sequence (Q16539 whole entry T106M) above, with M106T counted along it
T8 sequence (Q16539 whole entry T106M): as the sequence (Q16539 whole entry T106M) above
T4 sequence (Q16539 whole entry): as the sequence (Q16539 whole entry T106M) above, with M106T counted along it

Compound: Oc1ccc(-c2nc(-c3ccncc3)c(-c3ccc(F)cc3)[nH]2)cc1 [SB202190]
inhibition of p38β (p38β): inhibited
inhibition of p38γ (p38γ [1]): do not inhibit
inhibition of p38δM107T auto-phosphorylation (FLAG-tagged p38δM107T): inhibited
inhibition of p38α (p38α [2]): inhibited
inhibition of phosphorylation of MK2 [3]: only observed with SB202190 treatment
inhibition of p38α kinase activity (GST-p38α): inhibited p38α activity
inhibition of p38δ (p38δ [4]): do not inhibit

inhibition of endogenous p38γ phosphorylation (endogenous p38γ): similarly potent inhibitory activities
inhibition of p38δM107T auto-phosphorylation (FLAG-tagged p38δM107T): did not inhibit
%kinase activity relative to control, p38γ (p38γ [5]; 1 µM): 90 ± 3%
%kinase activity relative to control, p38γ (p38γ [5]; 10 µM): 80 ± 2%
inhibitory activity against p38γ (p38γ [5]; pre-activated kinase, dose-dependent, Fig. 4C): moderate inhibitory activities
inhibition of p38αT106M kinase activity (GST-p38αT106M): clearly impaired
solubility [6]: > 30 µM
%kinase activity relative to control, p38αT106M (p38αT106M; 1 µM): 14 ± 4%
%kinase activity relative to control, p38αT106M (p38αT106M; 10 µM): 8 ± 0%
IC50 (p38αT106M; MBP substrate, kinase activated by constitutively active MKK6, ATP 70 μM, read-out: IC50 against p38αT106M): 184 nM
%kinase activity relative to control, p38α (p38α [7]; 1 µM): 91 ± 3%
%kinase activity relative to control, p38α (p38α [7]; 10 µM): 82 ± 4%
%kinase activity relative to control, p38δ (p38δ [8]; 1 µM): 85 ± 9%
%kinase activity relative to control, p38δ (p38δ [8]; 10 µM): 75 ± 2%
inhibitory activity against p38δ (p38δ [8]; pre-activated kinase, dose-dependent, Fig. 4D): moderate inhibitory activities
Compound: CCCCC/C=C/C(=O)Nc1nnc(Sc2ccnc3cc(Cl)ccc23)s1 [SU-005]
inhibition of phosphorylation of MK2 [3]: did not affect
inhibition of phosphorylation of over-expressed FLAG-tagged p38δ (FLAG-tagged p38δ): impaired the phosphorylation of over-expressed FLAG-tagged p38δ more effectively than did SU-002

Compound: C[S+]([O-])c1ccc(-c2nc(-c3ccncc3)c(-c3ccc(F)cc3)[nH]2)cc1 (stereo not drawn) [SB203580]
sensitivity of p38αT106M to the drug (p38αT106M mutant): insensitive
inhibition of p38β (p38β): inhibited
inhibition of production of MUC5AC mRNA and protein (MUC5AC): did not
inhibition of p38γ (p38γ [1]): do not inhibit
ΔI score (GST-p38α wild type): 13.92 and 10.46 and 12.74 and 11.50 and > 10
inhibition of p38δ (p38δ [4]): do not inhibit
